Where two headings read alike, the source gives them in different places.
Tested on: SJSA-1 cells
Assay: Protocol B: SJSA-1 CellTiter-Glo luminescent cell viability assay
[1] = Homo sapiens, SJSA-1, read-out: SJSA1 IC50 (μM) (Protocol B), SJSA-1, Protocol B
[2] = read-out: SJSA1 IC50 (μM) (Protocol B), SJSA-1, Protocol B
[3] = read-out: SJSA1 IC50, Protocol B, SJSA-1
[4] = Homo sapiens, SJSA-1, read-out: SJSA1 IC50 (μM), Protocol B, SJSA-1

Structure (SMILES) | IC50 [1] [µM] | IC50 [2] [µM] | further results
CC(O)(c1cc(F)c2c(c1)C(=O)N(Cc1ncc(Cl)cn1)[C@@]2(OCC1(O)CC1)c1ccc(Cl)cc1)C1CCS(=O)(=O)CC1 (single isomer, unassigned) [Example 397] | 2.5 | – | –
CC(O)(c1cc(F)c2c(c1)C(=O)N(Cc1ncc(Cl)cn1)[C@@]2(OCC1(C(N)=O)CC1)c1ccc(Cl)cc1)C1CCC1 (single isomer, unassigned) [Example 403] | – | 1.2 | –
CC(O)(c1cc(F)c2c(c1)C(=O)N(Cc1ncc(Cl)cn1)[C@@]2(OCC1(C(N)=O)CC1)c1ccc(Cl)cc1)C1CCC1 (single isomer, unassigned) [Example 404] | – | 0.095 | –
CC(O)(c1cc(F)c2c(c1)C(=O)N(Cc1ccc(C#N)cn1)[C@@]2(OCCO)c1ccc(Cl)cc1)C1CCC1 (single isomer, unassigned) [Example 405] | – | 0.63 | –
CC(O)(c1cc(F)c2c(c1)C(=O)N(Cc1ccc(C#N)cn1)[C@@]2(OCCO)c1ccc(Cl)cc1)C1CCC1 (single isomer, unassigned) [Example 406] | – | 3.9 | –
CCC(O)(c1cc(F)c2c(c1)C(=O)N(Cc1ncc(C#N)cn1)[C@@]2(OC[C@H]1C[C@H](O)C1)c1ccc(Cl)cc1)c1cn(C)cn1 (single isomer, unassigned) [Example 484] | – | – | IC50 [3]: 4.9 µM
CCC(O)(CN1CCN(C)CC1)c1cc(F)c2c(c1)C(=O)N(Cc1ncc(Cl)cn1)[C@@]2(OCCO)c1ccc(Cl)cc1 (single isomer, unassigned) [Example 532] | – | – | IC50 [3]: 0.14 µM
CCC(O)(CN1CCNCC1)c1cc(F)c2c(c1)C(=O)N(Cc1ncc(Cl)cn1)[C@@]2(OCC1(C#N)CC1)c1ccc(Cl)cc1 (single isomer, unassigned) [Example 537] | – | – | IC50 [3]: 0.76 µM
CO[C@]1(c2ccc(Cl)cc2)c2c(F)cc(C(C)(O)c3cn(C)c(C)n3)cc2C(=O)N1Cc1ccc(Cl)cn1 (stereo partly drawn) [Example 161, (3R)-3-(4-Chlorophenyl)-2-[(5-chloropyridin-2-yl)methyl]-6-[1-(1,2-dimethyl-1H-imidazol-4-yl)-1-hydroxyethyl]-4-fluoro-3-methoxy-2,3-dihydro-1H-isoindol-1-one] | – | 4.3 | –
CO[C@]1(c2ccc(Cl)cc2)c2c(F)cc(C(C)(O)c3cnn(C4CN(C(C)=O)C4)c3)cc2C(=O)N1Cc1ccc(Cl)cn1 (stereo partly drawn) [Example 182, (3R)-6-{1-[1-(1-Acetylazetidin-3-yl)-1H-pyrazol-4-yl]-1-hydroxyethyl}-3-(4-chlorophenyl)-2-[(5-chloropyridin-2-yl)methyl]-4-fluoro-3-methoxy-2,3-dihydro-1H-isoindol-1-one] | 0.88 | – | –
CO[C@]1(c2ccc(Cl)cc2)c2c(F)cc(C(C)(O)c3cnn(CCN(C)C)c3)cc2C(=O)N1Cc1ccc(Cl)cn1 (stereo partly drawn) [Example 191, (3R)-3-(4-Chlorophenyl)-2-[(5-chloropyridin-2-yl)methyl]-6-(1-{1-[2-(dimethylamino)ethyl]-1H-pyrazol-4-yl}-1-hydroxyethyl)-4-fluoro-3-methoxy-2,3-dihydro-1H-isoindol-1-one] | 2.5 | – | –
CO[C@]1(c2ccc(Cl)cc2)c2c(F)cc(C(C)(O)c3cnn(CCN(C)C)c3)cc2C(=O)N1Cc1ccc(Cl)cn1 (stereo partly drawn) [Example 192, (3R)-3-(4-Chlorophenyl)-2-[(5-chloropyridin-2-yl)methyl]-6-(1-{1-[2-(dimethylamino)ethyl]-1H-pyrazol-4-yl}-1-hydroxyethyl)-4-fluoro-3-methoxy-2,3-dihydro-1H-isoindol-1-one] | – | 1.4 | –
Cn1cc(C(C)(O)c2cc(F)c3c(c2)C(=O)N(Cc2ccc(F)cn2)[C@@]3(OCC2(C(N)=O)CC2)c2ccc(Cl)cc2)cn1 (stereo partly drawn) [Example 209, 1-({[(1R)-1-(4-chlorophenyl)-7-fluoro-2-[(5-fluoropyridin-2-yl)methyl]-5-[1-hydroxy-1-(1-methyl-1H-pyrazol-4-yl)ethyl]-3-oxo-2,3-dihydro-1H-isoindol-1-yl]oxy}methyl)cyclopropane-1-carboxamide] | 0.45 | – | –
Cn1cc(C(C)(O)c2cc(F)c3c(c2)C(=O)N(Cc2ccc(C#N)cn2)[C@@]3(OCC2(C#N)CC2)c2ccc(Cl)cc2)cn1 (stereo partly drawn) [Example 211, 6-{[(1R)-1-(4-chlorophenyl)-1-[(1-cyanocyclopropyl)methoxy]-7-fluoro-5-[1-hydroxy-1-(1-methyl-1H-pyrazol-4-yl)ethyl]-3-oxo-2,3-dihydro-1H-isoindol-2-yl]methyl}pyridine-3-carbonitrile] | 0.36 | – | –
Cn1cc(C(C)(O)c2cc(F)c3c(c2)C(=O)N(Cc2ccc(Cl)cn2)[C@@]3(OCCO)c2ccc(Cl)cc2)cn1 (stereo partly drawn) [Example 213, (3R)-3-(4-chlorophenyl)-2-[(5-chloropyridin-2-yl)methyl]-4-fluoro-6-[1-hydroxy-1-(1-methyl-1H-pyrazol-4-yl)ethyl]-3-(2-hydroxyethoxy)-2,3-dihydro-1H-isoindol-1-one] | 0.25 | – | –
Cn1cc(C(C)(O)c2cc(F)c3c(c2)C(=O)N(Cc2ncc(Cl)cn2)[C@@]3(OCC2(C(N)=O)CC2)c2ccc(Cl)cc2)cn1 (stereo partly drawn) [Example 214, 1-({[(1R)-1-(4-chlorophenyl)-2-[(5-chloropyrimidin-2-yl)methyl]-7-fluoro-5-[1-hydroxy-1-(1-methyl-1H-pyrazol-4-yl)ethyl]-3-oxo-2,3-dihydro-1H-isoindol-1-yl]oxy}methyl)cyclopropane-1-carboxamide] | 0.22 | – | –
COc1ccc(CN2C(=O)c3cc(C(C)(O)c4cnn(C)c4)cc(F)c3[C@]2(OCC2(C(N)=O)CC2)c2ccc(Cl)cc2)cn1 (stereo partly drawn) [Example 216, 1-({[(1R)-1-(4-chlorophenyl)-7-fluoro-5-[1-hydroxy-1-(1-methyl-1H-pyrazol-4-yl)ethyl]-2-[(6-methoxypyridin-3-yl)methyl]-3-oxo-2,3-dihydro-1H-isoindol-1-yl]oxy}methyl)cyclopropane-1-carboxamide] | 0.28 | – | –
COc1ccc(CN2C(=O)c3cc(C(C)(O)c4cnn(C)c4)cc(F)c3[C@]2(OCC2(CO)CC2)c2ccc(Cl)cc2)cn1 (stereo partly drawn) [Example 219, (3R)-3-(4-chlorophenyl)-4-fluoro-6-[1-hydroxy-1-(1-methyl-1H-pyrazol-4-yl)ethyl]-3-{[1-(hydroxymethyl)cyclopropyl]methoxy}-2-[(6-methoxypyridin-3-yl)methyl]-2,3-dihydro-1H-isoindol-1-one] | – | 0.11 | –
COc1ccc(CN2C(=O)c3cc(C(C)(O)c4cnn(C)c4)cc(F)c3[C@]2(OCC2(CO)CC2)c2ccc(Cl)cc2)nc1 (stereo partly drawn) [Example 224, (3R)-3-(4-chlorophenyl)-4-fluoro-6-[1-hydroxy-1-(1-methyl-1H-pyrazol-4-yl)ethyl]-3-{[1-(hydroxymethyl)cyclopropyl]methoxy}-2-[(5-methoxypyridin-2-yl)methyl]-2,3-dihydro-1H-isoindol-1-one] | – | 0.12 | –
CC(O)(c1cc(F)c2c(c1)C(=O)N(Cc1ccc(C#N)cn1)[C@@]2(OCC1(C#N)CC1)c1ccc(Cl)cc1)C1CCOCC1 (stereo partly drawn) [Example 282, 6-{[(1R)-1-(4-chlorophenyl)-1-[(1-cyanocyclopropyl)methoxy]-7-fluoro-5-[1-hydroxy-1-(oxan-4-yl)ethyl]-3-oxo-2,3-dihydro-1H-isoindol-2-yl]methyl}pyridine-3-carbonitrile] | 0.061 | – | –
CC(O)(c1cc(F)c2c(c1)C(=O)N(Cc1ncc(Cl)cn1)[C@@]2(OCC1(C(N)=O)CC1)c1ccc(Cl)cc1)C1CCOCC1 (stereo partly drawn) [Example 284, 1-({[(1R)-1-(4-chlorophenyl)-2-[(5-chloropyrimidin-2-yl)methyl]-7-fluoro-5-[1-hydroxy-1-(oxan-4-yl)ethyl]-3-oxo-2,3-dihydro-1H-isoindol-1-yl]oxy}methyl)cyclopropane-1-carboxamide] | 0.017 | – | –
CCC(O)(c1cc(F)c2c(c1)C(=O)N(Cc1ccc(Cl)nc1)[C@@]2(OCCO)c1ccc(Cl)cc1)c1cn(C)cn1 (stereo partly drawn) [Example 367, (3R)-3-(4-chlorophenyl)-2-[(6-chloropyridin-3-yl)methyl]-4-fluoro-6-[1-hydroxy-1-(1-methyl-1H-imidazol-4-yl)propyl]-3-(2-hydroxyethoxy)-2,3-dihydro-1H-isoindol-1-one] | – | – | IC50 [4]: 0.11 µM
CO[C@]1(c2ccc(Cl)cc2)c2c(F)cc(C(C)(O)C3CN(C(C)=O)C3)cc2C(=O)N1Cc1ccc(Cl)cn1 (stereo partly drawn) [Example 389, (3R)-6-[1-(1-acetylazetidin-3-yl)-1-hydroxyethyl]-3-(4-chlorophenyl)-2-[(5-chloropyridin-2-yl)methyl]-4-fluoro-3-methoxy-2,3-dihydro-1H-isoindol-1-one] | – | 4.2 | –
CO[C@]1(c2ccc(Cl)cc2)c2c(F)cc(C(C)(O)C3CN(C(C)=O)C3)cc2C(=O)N1Cc1ccc(Cl)cn1 (stereo partly drawn) [Example 390, (3R)-6-[1-(1-acetylazetidin-3-yl)-1-hydroxyethyl]-3-(4-chlorophenyl)-2-[(5-chloropyridin-2-yl)methyl]-4-fluoro-3-methoxy-2,3-dihydro-1H-isoindol-1-one] | – | 0.63 | –
CO[C@]1(c2ccc(Cl)cc2)c2c(F)cc(C(C)(O)C3CN(C(=O)CO)C3)cc2C(=O)N1Cc1ccc(Cl)cn1 (stereo partly drawn) [Example 391, (3R)-3-(4-chlorophenyl)-2-[(5-chloropyridin-2-yl)methyl]-4-fluoro-6-{1-hydroxy-1-[1-(2-hydroxyacetyl)azetidin-3-yl]ethyl}-3-methoxy-2,3-dihydro-1H-isoindol-1-one] | 0.66 | – | –
CO[C@]1(c2ccc(Cl)cc2)c2c(F)cc(C(C)(O)C3CN(C(=O)N(C)C)C3)cc2C(=O)N1Cc1ccc(C#N)cn1 (stereo partly drawn) [Example 393, 3-{1-[(1R)-1-(4-chlorophenyl)-2-[(5-cyanopyridin-2-yl)methyl]-7-fluoro-1-methoxy-3-oxo-2,3-dihydro-1H-isoindol-5-yl]-1-hydroxyethyl}-N,N-dimethylazetidine-1-carboxamide] | – | – | IC50 [4]: 0.79 µM
O=C1c2cc(C(O)C3CCS(=O)(=O)CC3)cc(F)c2[C@](OCC2(O)CC2)(c2ccc(Cl)cc2)N1Cc1ncc(Cl)cn1 (stereo partly drawn) [Example 400, 4-{[(1R)-1-(4-chlorophenyl)-2-[(5-chloropyrimidin-2-yl)methyl]-7-fluoro-1-[(1-hydroxycyclopropyl)methoxy]-3-oxo-2,3-dihydro-1H-isoindol-5-yl](hydroxy)methyl}-1λ6-thiane-1,1-dione] | – | – | IC50 [4]: 1.1 µM
